Results as given in patent publication US11786492B2, “Therapeutic agent for phosphodiesterase inhibition and its related disorders” (Novalead Pharma Inc, priority 2017, dated 2023).

Assays:
PDE7A = PDE7A (Homo sapiens, UniProt Q13946); assay: Fluorescence polarization assay PDE7A; assay type: biochemical; details: substrate cAMP
Method: (§1) An experiment to check inhibition of various subtypes of the target Phosphodiesterase (PDE) enzyme in in-vitro assay was performed. […] PDE1A, PDE2A, PDE4A, PDE4B, PDE4C, PDE4D, PDE5A, PDE7A, PDE9A, PDE10A.

[1] = tested on: Imiquimod induced psoriasis in BALB/c mice; assay: Imiquimod induced psoriasis model in Balb/c mice; details: for % inhibition of Ear inflamn. / Histopathology Scores Epidermal Thickness / Histopathology Scores Hyperkeratosis / Histopathology Scores Rete Peg Prolifern. / PASI score / Spleen weight / IL23 Levels: twice daily; for IL23 Levels: ear tissue lysate
Method: BALB/c mice (Sex: Female, Age: 7-8 Weeks) were used for induction of psoriasis using IMQ. Topical application of imiquimod (IMQ) in mice can induce and exacerbate psoriasis closely resembling human psoriasis. […] 3%, 4% and 5% and positive control of Tenovate (Clobetasol) 0.05% cream. In all 63 mg cream containing 5% of IMQ was applied to dorsal area (shaved back) and right ear for 8 days. Topical formulations from Example 7 were used during this experiment.
The parameters investigated were ear thickness change, % inhibition of ear inflammation, Psoriatic Area Severity Index (PASI). Histopathology was performed of right ear and dorsal skin by H & E staining. The biomarker in this study was inflammatory cytokine IL-23 analyzed by ELISA obtained from tissue lysate of ear region where IMQ and doses were applied.

HaCaT cells [2] = assay: Keratinocyte (HaCaT) proliferation, MTT assay; assay type: cell-based, human; details: Homo sapiens, HaCaT, 72 h; read-out: IC50 of cell proliferation
Method: An experiment to check keratinocyte proliferation inhibitory activity of selected compounds of Formula-I was performed to establish its application in skin disorders related to keratinocyte hyper-proliferation. HaCaT cells, a human immortalized cell line derived from keratinocytes, representing hyper-proliferating keratinocytes was investigated for anti-proliferative potential of the selected compounds by MTT assay.

HaCaT cells [3] = assay: Cell viability of HaCaT cells, Alamar blue; assay type: cell-based, human
Method: (§2) HaCaT cells were maintained in T-75 cm2 flask in Dulbecco's modified Eagle medium supplemented with FBS (10%), L-glutamine (2 mM), penicillin (100 ug/ml), streptomycin (100 ug/ml) at 37° C. in 5% CO2 incubator. Cell growth was maintained to 70-80% confluence for seeding and vehicle used was 1% DMSO. The cell viability was checked at various time points using Alamar blue and fluorescence readings were taken at excitation of 544 nm and emission of 590 nm.

PDE10A = PDE10A (Homo sapiens, UniProt Q9Y233); assay: Fluorescence polarization assay PDE10A; assay type: biochemical; details: substrate cAMP
Method: as §1

PDE1A = PDE1A (Homo sapiens, UniProt P54750); assay: Fluorescence polarization assay PDE1A; assay type: biochemical; details: substrate cGMP, Ca-CaM
Method: as §1

PDE5A = PDE5A (Homo sapiens, UniProt O76074); assay: Fluorescence polarization assay PDE5A; assay type: biochemical; details: substrate cGMP
Method: as §1

PDE5 (Human platelets) = molecular target: T1, PDE5 (Human platelets) (Homo sapiens, UniProt O76074); assay: Radiolabeled enzyme assay PDE5; assay type: biochemical; details: read-out: % inhibition at 30 μM, 1.01 μM [3H]cGMP+cGMP
T1 construct: PDE5 (Human platelets); from tissue; host or cells: human platelets
Method: (§3) Enzyme assays have been optimized for incubation time, substrate concentration and method of end-product determination.

PDE4B = PDE4B (Homo sapiens, UniProt Q07343); assay: Fluorescence polarization assay PDE4B; assay type: biochemical; details: substrate cAMP
Method: as §1

TNF-α = TNF-α release from stimulated HaCaT cells, ELISA; assay type: cell-based, human; details: IFN-γ 50 ng/mL, 48 hrs
Method: as §2
(§4) HaCaT cells were stimulated with different stimulators as follows: • a. Cells were exposed to stimulator LPS at 1 μg/mL for 48 hrs to stimulate IL-1β • b. Cells were exposed to stimulator IFN-γ at 50 ng/mL for 48 hrs to stimulate TNF-α, IL-6
(§5) After 48 hrs supernatants were collected and centrifuged to remove any cell debris and aliquots were used for ELISA.

PDE2A = PDE2A (Homo sapiens, UniProt O00408); assay: Fluorescence polarization assay PDE2A; assay type: biochemical; details: substrate cGMP
Method: as §1

PDE9A = PDE9A (Homo sapiens, UniProt O76083); assay: Fluorescence polarization assay PDE9A; assay type: biochemical; details: substrate cGMP
Method: as §1

PDE2 (Human platelets) = molecular target: T2, PDE2 (Human platelets) (Homo sapiens, UniProt O00408); assay: Radiolabeled enzyme assay PDE2; assay type: biochemical; details: read-out: % inhibition at 30 μM, 1.01 μM [3H]cAMP+cAMP
T2 construct: PDE2 (Human platelets); from tissue; host or cells: human platelets
Method: as §3

IL-6 = IL-6 release from stimulated HaCaT cells, ELISA; assay type: cell-based, human; details: for IL-6 Conc.: IFN-γ 50 ng/mL, 48 hrs
Method: as §2, §4, §5

PDE4A = PDE4A (Homo sapiens, UniProt P27815); assay: Fluorescence polarization assay PDE4A; assay type: biochemical; details: substrate cAMP
Method: as §1

human PBMCs = assay: Cell viability of human PBMCs, Alamar blue; assay type: cell-based
Method: Fresh human blood from healthy volunteer was collected in anticoagulant (5 mM) ethylene diamine tetra acetic acid (EDTA) containing tubes. The growth medium used was RPMI-1640 medium (with 3% FBS) and incubated at 37° C. for 60 mins in a 5% CO2 incubator with vehicle used as 1% DMSO. The cell viability was checked at various time points using Alamar blue and fluorescence readings were taken at excitation of 544 nm and emission of 590 nm.

PDE4C = PDE4C (Homo sapiens, UniProt Q08493); assay: Fluorescence polarization assay PDE4C; assay type: biochemical; details: substrate cAMP
Method: as §1

Sequence of PDE2A (O00408 whole entry, species assumed): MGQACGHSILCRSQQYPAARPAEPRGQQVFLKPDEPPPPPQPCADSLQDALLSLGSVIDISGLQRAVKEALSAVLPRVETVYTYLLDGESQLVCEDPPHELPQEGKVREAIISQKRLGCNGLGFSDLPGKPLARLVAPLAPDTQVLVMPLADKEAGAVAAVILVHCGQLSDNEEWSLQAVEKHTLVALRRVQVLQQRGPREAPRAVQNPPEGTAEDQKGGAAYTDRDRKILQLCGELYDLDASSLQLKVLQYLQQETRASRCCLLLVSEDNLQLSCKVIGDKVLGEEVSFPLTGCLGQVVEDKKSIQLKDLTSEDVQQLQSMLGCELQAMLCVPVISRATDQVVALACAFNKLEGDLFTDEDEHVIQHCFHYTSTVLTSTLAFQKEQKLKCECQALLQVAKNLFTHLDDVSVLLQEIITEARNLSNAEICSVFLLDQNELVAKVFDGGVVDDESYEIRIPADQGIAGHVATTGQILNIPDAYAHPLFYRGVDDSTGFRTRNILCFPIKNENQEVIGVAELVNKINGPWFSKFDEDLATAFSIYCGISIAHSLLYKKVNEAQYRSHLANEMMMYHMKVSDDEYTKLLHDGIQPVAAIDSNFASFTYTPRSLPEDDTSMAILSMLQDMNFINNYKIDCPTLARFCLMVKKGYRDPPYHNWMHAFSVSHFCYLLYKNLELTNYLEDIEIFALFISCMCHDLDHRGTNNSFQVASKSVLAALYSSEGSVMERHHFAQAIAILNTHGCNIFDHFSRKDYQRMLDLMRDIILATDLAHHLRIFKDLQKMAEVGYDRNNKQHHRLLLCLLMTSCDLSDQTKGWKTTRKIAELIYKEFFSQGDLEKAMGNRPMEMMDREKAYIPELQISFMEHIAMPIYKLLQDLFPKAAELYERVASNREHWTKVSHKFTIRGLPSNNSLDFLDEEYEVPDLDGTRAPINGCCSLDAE
T2 sequence (O00408 whole entry): as the sequence (O00408 whole entry, species assumed) above
Sequence of PDE10A (Q9Y233 whole entry, species assumed): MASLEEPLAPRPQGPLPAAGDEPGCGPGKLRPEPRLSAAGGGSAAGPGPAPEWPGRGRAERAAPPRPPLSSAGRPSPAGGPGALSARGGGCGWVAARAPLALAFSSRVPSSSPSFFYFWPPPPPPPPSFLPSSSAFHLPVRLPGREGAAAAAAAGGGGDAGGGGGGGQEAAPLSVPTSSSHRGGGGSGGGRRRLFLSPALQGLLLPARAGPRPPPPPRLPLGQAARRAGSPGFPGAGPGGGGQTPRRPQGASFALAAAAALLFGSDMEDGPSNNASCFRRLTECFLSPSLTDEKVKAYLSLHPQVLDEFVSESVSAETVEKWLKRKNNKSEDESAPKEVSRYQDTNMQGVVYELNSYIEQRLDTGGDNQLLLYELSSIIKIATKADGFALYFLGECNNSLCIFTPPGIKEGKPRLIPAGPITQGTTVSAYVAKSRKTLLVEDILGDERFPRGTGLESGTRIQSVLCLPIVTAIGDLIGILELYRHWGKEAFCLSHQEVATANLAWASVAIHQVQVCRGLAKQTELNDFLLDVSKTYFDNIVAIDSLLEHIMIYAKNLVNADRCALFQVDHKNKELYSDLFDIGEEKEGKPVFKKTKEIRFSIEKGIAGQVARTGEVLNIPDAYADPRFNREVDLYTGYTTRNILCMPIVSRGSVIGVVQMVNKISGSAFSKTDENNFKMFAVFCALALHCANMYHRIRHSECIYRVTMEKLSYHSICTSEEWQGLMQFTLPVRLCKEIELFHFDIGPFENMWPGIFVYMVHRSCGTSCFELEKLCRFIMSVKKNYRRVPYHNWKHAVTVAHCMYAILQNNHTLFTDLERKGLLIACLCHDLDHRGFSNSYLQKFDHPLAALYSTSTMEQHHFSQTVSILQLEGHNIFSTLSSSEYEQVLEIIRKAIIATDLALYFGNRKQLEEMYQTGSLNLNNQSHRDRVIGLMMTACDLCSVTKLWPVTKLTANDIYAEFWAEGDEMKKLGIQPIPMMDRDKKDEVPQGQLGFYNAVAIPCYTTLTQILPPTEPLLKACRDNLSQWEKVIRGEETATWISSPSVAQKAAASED
Sequence of PDE9A (O76083 whole entry, species assumed): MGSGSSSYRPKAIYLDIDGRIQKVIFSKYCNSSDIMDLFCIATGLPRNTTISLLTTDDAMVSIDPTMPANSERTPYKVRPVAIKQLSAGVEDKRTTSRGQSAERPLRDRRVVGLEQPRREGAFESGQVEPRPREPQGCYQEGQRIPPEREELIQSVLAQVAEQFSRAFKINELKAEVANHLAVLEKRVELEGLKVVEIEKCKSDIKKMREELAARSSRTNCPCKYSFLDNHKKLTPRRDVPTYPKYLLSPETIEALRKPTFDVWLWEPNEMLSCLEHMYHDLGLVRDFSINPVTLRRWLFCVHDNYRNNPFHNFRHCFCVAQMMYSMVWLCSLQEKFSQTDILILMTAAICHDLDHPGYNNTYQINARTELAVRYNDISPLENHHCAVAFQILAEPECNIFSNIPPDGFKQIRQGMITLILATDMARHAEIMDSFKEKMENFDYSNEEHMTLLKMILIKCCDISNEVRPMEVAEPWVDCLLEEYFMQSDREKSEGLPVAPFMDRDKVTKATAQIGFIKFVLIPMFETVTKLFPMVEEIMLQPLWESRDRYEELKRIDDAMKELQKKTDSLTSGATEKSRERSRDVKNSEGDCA
Sequence of PDE7A (Q13946 whole entry, species assumed): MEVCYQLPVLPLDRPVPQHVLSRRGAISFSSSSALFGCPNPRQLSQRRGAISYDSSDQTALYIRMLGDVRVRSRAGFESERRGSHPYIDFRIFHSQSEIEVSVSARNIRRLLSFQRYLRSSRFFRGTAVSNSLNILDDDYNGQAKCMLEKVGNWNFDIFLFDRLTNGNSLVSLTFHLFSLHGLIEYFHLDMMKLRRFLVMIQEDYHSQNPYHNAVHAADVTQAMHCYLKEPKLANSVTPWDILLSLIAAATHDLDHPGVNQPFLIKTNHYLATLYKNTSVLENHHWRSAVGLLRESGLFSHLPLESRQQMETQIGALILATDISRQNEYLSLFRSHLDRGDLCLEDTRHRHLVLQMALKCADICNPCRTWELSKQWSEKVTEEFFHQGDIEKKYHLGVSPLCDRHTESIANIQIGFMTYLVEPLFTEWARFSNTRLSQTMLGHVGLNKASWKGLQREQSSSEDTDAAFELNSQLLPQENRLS
Sequence of PDE1A (P54750 whole entry, species assumed): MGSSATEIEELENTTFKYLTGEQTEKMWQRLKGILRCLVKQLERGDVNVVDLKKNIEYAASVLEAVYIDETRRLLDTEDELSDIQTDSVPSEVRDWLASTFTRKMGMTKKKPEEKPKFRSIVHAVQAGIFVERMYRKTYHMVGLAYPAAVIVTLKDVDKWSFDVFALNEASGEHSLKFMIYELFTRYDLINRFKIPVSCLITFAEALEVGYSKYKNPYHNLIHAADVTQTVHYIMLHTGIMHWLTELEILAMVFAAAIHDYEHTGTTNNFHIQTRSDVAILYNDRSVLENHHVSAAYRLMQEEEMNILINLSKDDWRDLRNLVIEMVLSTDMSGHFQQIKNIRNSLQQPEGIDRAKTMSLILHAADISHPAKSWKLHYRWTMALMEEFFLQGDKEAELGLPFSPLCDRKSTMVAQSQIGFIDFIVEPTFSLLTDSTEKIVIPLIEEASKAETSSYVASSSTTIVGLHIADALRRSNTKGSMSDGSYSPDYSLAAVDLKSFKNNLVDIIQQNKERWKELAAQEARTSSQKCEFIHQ
Sequence of PDE4A (P27815 whole entry, species assumed): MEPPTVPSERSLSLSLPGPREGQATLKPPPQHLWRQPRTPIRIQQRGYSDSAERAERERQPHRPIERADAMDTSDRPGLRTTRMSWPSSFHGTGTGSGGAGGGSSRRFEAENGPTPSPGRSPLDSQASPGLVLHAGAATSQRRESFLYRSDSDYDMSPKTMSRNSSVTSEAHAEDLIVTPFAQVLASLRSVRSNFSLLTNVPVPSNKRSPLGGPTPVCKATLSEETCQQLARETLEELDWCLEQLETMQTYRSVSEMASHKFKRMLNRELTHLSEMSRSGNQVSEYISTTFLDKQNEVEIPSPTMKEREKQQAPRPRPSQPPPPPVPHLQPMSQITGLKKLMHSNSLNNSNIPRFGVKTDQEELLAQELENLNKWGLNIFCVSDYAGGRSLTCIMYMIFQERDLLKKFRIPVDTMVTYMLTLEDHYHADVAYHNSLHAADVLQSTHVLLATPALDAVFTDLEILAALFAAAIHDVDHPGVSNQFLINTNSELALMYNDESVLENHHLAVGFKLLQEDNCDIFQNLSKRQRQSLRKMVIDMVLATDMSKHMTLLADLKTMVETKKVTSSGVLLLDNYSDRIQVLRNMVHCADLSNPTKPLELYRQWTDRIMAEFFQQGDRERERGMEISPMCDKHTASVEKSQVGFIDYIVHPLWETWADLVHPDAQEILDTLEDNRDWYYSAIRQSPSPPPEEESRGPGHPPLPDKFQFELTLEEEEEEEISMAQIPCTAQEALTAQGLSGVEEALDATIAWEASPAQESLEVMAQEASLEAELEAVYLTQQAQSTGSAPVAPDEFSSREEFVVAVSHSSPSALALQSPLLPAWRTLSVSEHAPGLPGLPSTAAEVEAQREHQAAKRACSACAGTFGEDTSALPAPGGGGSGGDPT

SMILES: O=C(Nc1ccc([N+](=O)[O-])cc1Cl)c1cc(Cl)ccc1O [Niclosamide]
- IC50 (PDE7A): 19.1 µM
- % inhibition of Ear inflamn. ([1]; 1% topical): 27.1%
- Histopathology Scores Epidermal Thickness ([1]; 1% topical): 6.8 ± 0.2
- Histopathology Scores Hyperkeratosis ([1]; 1% topical): 0.8 ± 0.2
- Histopathology Scores Rete Peg Prolifern. ([1]; 1% topical): 1.8 ± 0.2
- PASI score ([1]; 1% topical): 15.8 ± 3.0
- Spleen weight ([1]; 1% topical, Day 9): 265.2 ± 49.2 mg
- IL23 Levels ([1]; 1% topical): 119.9 ± 7.8 pg/mL
- % inhibition of Ear inflamn. ([1]; 2% topical): 30.4%
- Histopathology Scores Epidermal Thickness ([1]; 2% topical): 5.6 ± 0.8
- Histopathology Scores Hyperkeratosis ([1]; 2% topical): 1.4 ± 0.2
- Histopathology Scores Rete Peg Prolifern. ([1]; 2% topical): 1.4 ± 0.2
- PASI score ([1]; 2% topical): 17.2 ± 1.7
- Spleen weight ([1]; 2% topical, Day 9): 214.4 ± 15.1 mg
- IL23 Levels ([1]; 2% topical): 96.6 ± 10.9 pg/mL
- reduction in the PASI score ([1]; 3% concentration): up to 50%
- % inhibition of Ear inflamn. ([1]; 3% topical): 42.7%
- Histopathology Scores Epidermal Thickness ([1]; 3% topical): 5.2 ± 0.2
- Histopathology Scores Hyperkeratosis ([1]; 3% topical): 1.0 ± 0.0^$
- Histopathology Scores Rete Peg Prolifern. ([1]; 3% topical): 0.5 ± 0.2
- PASI score ([1]; 3% topical): 10.7 ± 4.1
- Spleen weight ([1]; 3% topical, Day 9): 229.7 ± 18.7 mg
- IL23 Levels ([1]; 3% topical): 83.6 ± 9.8 pg/mL
- Spleen weight vs disease control (in words) ([1]; Niclosamide 2%, Nitazoxanide 3% and 5%, Clobetasol 0.05%, Day 9): marginal reduction in spleen weight
- IL-23 level in ear tissue homogenates (in words) ([1]; different doses): reduction of IL-23 level
- Hyperkeratosis (in words) ([1]; ear lobe histopathology): significant reduction in Hyperkeratosis
- IC50 (HaCaT cells [2]): 3.25 µM
- % Viability (±S.E.M.) (HaCaT cells [3]; 0.1 μM, 24 hrs): 111 ± 9%
- % Viability (±S.E.M.) (HaCaT cells [3]; 0.1 μM, 48 hrs): 82 ± 3%
- % Viability (±S.E.M.) (HaCaT cells [3]; 0.1 μM, 72 hrs): 98 ± 6%
- % Viability (±S.E.M.) (HaCaT cells [3]; 1 μM, 24 hrs): 62 ± 4%
- % Viability (±S.E.M.) (HaCaT cells [3]; 1 μM, 48 hrs): 46 ± 0%
- % Viability (±S.E.M.) (HaCaT cells [3]; 1 μM, 72 hrs): 59 ± 11%
- % Viability (±S.E.M.) (HaCaT cells [3]; 5 μM, 24 hrs): 48 ± 1%
- % Viability (±S.E.M.) (HaCaT cells [3]; 5 μM, 48 hrs): 36 ± 2%
- % Viability (±S.E.M.) (HaCaT cells [3]; 5 μM, 72 hrs): 45 ± 8%
- % Viability (±S.E.M.) (HaCaT cells [3]; 10 μM, 48 hrs): 29 ± 1%
- % Viability (±S.E.M.) (HaCaT cells [3]; 10 μM, 72 hrs): 33 ± 2%
- % Viability (±S.E.M.) (HaCaT cells [3]; 50 μM, 24 hrs): 28 ± 1%
- % Viability (±S.E.M.) (HaCaT cells [3]; 50 μM, 48 hrs): 16 ± 0%
- % Viability (±S.E.M.) (HaCaT cells [3]; 50 μM, 72 hrs): 23 ± 7%
- IC50 (PDE10A): 19 µM
- IC50 (PDE1A): 88.7 µM
- IC50 (PDE5A): 16.7 µM
- inhibition at 30 µM (PDE5 (Human platelets)): 49%
- IC50 (PDE4B): 69.1 µM
- TNF-α Conc. (TNF-α; 0.05 μM): 2.5 ± 0.1 pg/mL
- TNF-α Conc. (TNF-α; 0.1 μM): 2.8 ± 0.1 pg/mL
- TNF-α Conc. (TNF-α; 0.25 μM): 2.5 ± 0.1 pg/mL
- IC50 (PDE2A): 11.6 µM
- IC50 (PDE9A): 59.8 µM
- inhibition at 30 µM (PDE2 (Human platelets)): 16%
- IL-6 Conc. (IL-6; 0.05 μM): 103 ± 4 pg/mL
- IL-6 Conc. (IL-6; 0.1 μM): 76 ± 4 pg/mL
- IL-6 release in HaCaT cells (in words) (IL-6; 0.25 μM): Reduction in IL-6 release
- IL-6 Conc. (IL-6; 0.25 μM): 54 ± 11 pg/mL
- IC50 (PDE4A): 100 µM
- % Viability (±S.E.M.) (human PBMCs; 0.01 μM, 24 hrs): 134 ± 7%
- % Viability (±S.E.M.) (human PBMCs; 0.01 μM, 48 hrs): 107 ± 1%
- % Viability (±S.E.M.) (human PBMCs; 0.01 μM, 72 hrs): 107 ± 6%
- % Viability (±S.E.M.) (human PBMCs; 1 μM, 24 hrs): 94 ± 4%
- % Viability (±S.E.M.) (human PBMCs; 1 μM, 48 hrs): 63 ± 0%
- % Viability (±S.E.M.) (human PBMCs; 1 μM, 72 hrs): 60 ± 1%
- % Viability (±S.E.M.) (human PBMCs; 100 μM, 24 hrs): 27 ± 5%
- % Viability (±S.E.M.) (human PBMCs; 100 μM, 48 hrs): 2 ± 1%
- % Viability (±S.E.M.) (human PBMCs; 100 μM, 72 hrs): −2 ± 0%
- IC50 (PDE4C): 20.2 µM
